Drawing on patent publication US20250177382A1, “NEK7 INHIBITORS” (Halia Therapeutics, Inc., priority 2021, published 2025), this text covers IC50 for 21 molecules.

The structures appear in SMILES notation.

This assay deals with T1, full-length recombinant human NEK7 (Homo sapiens, UniProt Q8TDX7).
T1 construct: full-length recombinant human NEK7; GST (N); purchased SignalChem N09-10G; host or cells: Sf9 insect cells (baculovirus)
The assay is described as follows: NEK7 enzymatic assay. In kind it is biochemical. To be noted: casein substrate, [32P]-ATP, radiometric P81 filter assay. The procedure:
Casein substrate (from bovine milk, hydrolyzed and partially dephosphorylated mixture of α, β, and κ caseins, obtained from Sigma Aldrich, catalogue #C4765, diluted in distilled water to a final concentration of 1 mg/mL, assay concentration 20 μM) and full-length recombinant human NEK7 (expressed by baculovirus in Sf9 insect cells using a N-terminal GST tag, obtained from SignalChem, catalogue #N09-10G, […], assay concentration 70 nM) were mixed in assay buffer (20 mM Hepes pH 7.5, 10 mM MgCl2, 1 mM EGTA, 0.02% Brij35, 0.02 mg/mL BSA, 0.1 mM […], 2 mM DTT, 1% DMSO). Compounds of interest (in DMSO, serial 3-fold dilution from 10 μM to 0.5 nM) or control (1% DMSO) were dispensed into the kinase reaction mixture by Acoustic technology (Echo550; nanoliter range). After incubation at room temperature for 20 minutes, the kinase reaction was initiated by addition of [^32P]-ATP (Specific activity 10 μUCi/μl) and the mixture was incubated at room temperature for 2 hours. The reaction was then stopped by spotting the reaction mixture on strips of phosphocellulose P81 paper. Following washing, the radioactivity of the P81 paper was measured and kinase activity data were expressed as the percent remaining kinase activity in test samples compared to vehicle (dimethyl sulfoxide) reactions. IC50 values and curve fits were obtained using Prism (GraphPad Software).
Representative compounds were tested for inhibitory activity against NEK7 and IL-1β release according to the procedures described above.

T1 sequence (Q8TDX7 whole entry): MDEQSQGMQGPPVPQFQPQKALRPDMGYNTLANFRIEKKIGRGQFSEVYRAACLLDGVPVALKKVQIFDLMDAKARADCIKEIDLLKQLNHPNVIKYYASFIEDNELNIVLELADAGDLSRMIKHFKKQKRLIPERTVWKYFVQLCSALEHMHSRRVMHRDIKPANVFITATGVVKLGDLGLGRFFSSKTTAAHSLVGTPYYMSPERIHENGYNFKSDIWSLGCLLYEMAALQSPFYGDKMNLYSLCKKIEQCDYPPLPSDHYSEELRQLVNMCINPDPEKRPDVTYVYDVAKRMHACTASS

The IC50 is the midpoint of a concentration-inhibition curve. With `CN1C[C@@H]2CN(Cc3ccc(NC(=O)Nc4ccc(Oc5ccnc6[nH]cc(Cl)c56)cc4F)cc3C(F)(F)F)C[C@@H]2C1` [Example I-15, 1-(4-((3-chloro-1H-pyrrolo[2,3-b]pyridin-4-yl)oxy)-2-fluorophenyl)-3-(4-(((3aR,6aS)-5-methylhexahydropyrrolo[3,4-c]pyrrol-2(1H)-yl)methyl)-3-(trifluoromethyl)phenyl)urea], the IC50 lay within 200 to 500 nM.

On to `CN1CCN(Cc2ccc(NC(=O)Nc3ccc(Oc4ccnc5[nH]cc(Cl)c45)cc3F)cc2C(F)(F)F)C2(CC2)C1` [Example I-20, 1-(4-((3-chloro-1H-pyrrolo[2,3-b]pyridin-4-yl)oxy)-2-fluorophenyl)-3-(4-((7-methyl-4,7-diazaspiro[2.5]octan-4-yl)methyl)-3-(trifluoromethyl)phenyl)urea], for which the IC50 is above 2000 nM. The value for `CN1CCN(Cc2ccc(NC(=O)Nc3ccc(Oc4ccnc5[nH]cc(Cl)c45)cc3F)cc2C2CC2)CC1` [Example I-26, 1-(4-((3-chloro-1H-pyrrolo[2,3-b]pyridin-4-yl)oxy)-2-fluorophenyl)-3-(3-cyclopropyl-4-((4-methylpiperazin-1-yl)methyl)phenyl)urea] was 500 to 2000 nM.

For `CN1CCN(Cc2ccc(NC(=O)Nc3ccc(Oc4ccnc5[nH]cc(Cl)c45)cc3F)cc2Cl)CC1` [Example I-30, 1-(4-((3-chloro-1H-pyrrolo[2,3-b]pyridin-4-yl)oxy)-2-fluorophenyl)-3-(3-chloro-4-((4-methylpiperazin-1-yl)methyl)phenyl)urea], the IC50 is 500 to 2000 nM. Turning to `Cc1cn(-c2ccc(NC(=O)Nc3ccc(Oc4ccnc5[nH]cc(Cl)c45)cc3F)cc2C(F)(F)F)cn1` [Example I-32, 1-(4-((3-chloro-1H-pyrrolo[2,3-b]pyridin-4-yl)oxy)-2-fluorophenyl)-3-(4-(4-methyl-1H-imidazol-1-yl)-3-(trifluoromethyl)phenyl)urea], the IC50 was above 2000 nM. On to `CN1CCCN(Cc2ccc(NC(=O)Nc3ccc(Oc4ccnc5[nH]cc(Cl)c45)cc3F)cc2C(F)(F)F)CC1` [Example I-33, 1-(4-((3-chloro-1H-pyrrolo[2,3-b]pyridin-4-yl)oxy)-2-fluorophenyl)-3-(4-((4-methyl-1,4-diazepan-1-yl)methyl)-3-(trifluoromethyl)phenyl)urea], for which the IC50 was 500 to 2000 nM. Regarding `CN1CCN(Cc2ncc(NC(=O)Nc3ccc(Oc4ccnc5[nH]cc(Cl)c45)cc3F)cc2C(F)(F)F)CC1` [Example I-46, 1-(4-((3-chloro-1H-pyrrolo[2,3-b]pyridin-4-yl)oxy)-2-fluorophenyl)-3-(6-((4-methylpiperazin-1-yl)methyl)-5-(trifluoromethyl)pyridin-3-yl)urea], the IC50 is 500 to 2000 nM. For the molecule `O=C(Nc1ccc(CN2CCC(F)(F)CC2)c(C(F)(F)F)c1)Nc1ccc(Oc2ccnc3[nH]cc(Cl)c23)cc1F` [Example I-47, 1-(4-((3-chloro-1H-pyrrolo[2,3-b]pyridin-4-yl)oxy)-2-fluorophenyl)-3-(4-((4,4-difluoropiperidin-1-yl)methyl)-3-(trifluoromethyl)phenyl)urea], the IC50 was above 2000 nM. Consider `O=C(Nc1ccc(OC2CCN(C3COC3)CC2)c(C(F)(F)F)c1)Nc1ccc(Oc2ccnc3[nH]cc(Cl)c23)cc1F` [Example I-48, 1-(4-((3-chloro-1H-pyrrolo[2,3-b]pyridin-4-yl)oxy)-2-fluorophenyl)-3-(4-((1-(oxetan-3-yl)piperidin-4-yl)oxy)-3-(trifluoromethyl)phenyl)urea], for which the IC50 is above 2000 nM.

In the case of `CC(=O)N1CCN(Cc2ccc(NC(=O)Nc3ccc(Oc4ccnc5[nH]cc(Cl)c45)cc3F)cc2C(F)(F)F)CC1` [Example I-49, 1-(4-((4-acetylpiperazin-1-yl)methyl)-3-(trifluoromethyl)phenyl)-3-(4-((3-chloro-1H-pyrrolo[2,3-b]pyridin-4-yl)oxy)-2-fluorophenyl)urea], the IC50 is above 2000 nM. The same measure for `O=C(Nc1ccc(CN2CCN(CCF)CC2)c(C(F)(F)F)c1)Nc1ccc(Oc2ccnc3[nH]cc(Cl)c23)cc1F` [Example I-50, 1-(4-((3-chloro-1H-pyrrolo[2,3-b]pyridin-4-yl)oxy)-2-fluorophenyl)-3-(4-((4-(2-fluoroethyl)piperazin-1-yl)methyl)-3-(trifluoromethyl)phenyl)urea]: 500 to 2000 nM.

As to `O=C(Nc1ccc(CN2CCNCC2)c(C(F)(F)F)c1)Nc1ccc(Oc2ccnc3[nH]cc(Cl)c23)cc1F` [Example I-55, 1-(4-((3-chloro-1H-pyrrolo[2,3-b]pyridin-4-yl)oxy)-2-fluorophenyl)-3-(4-(piperazin-1-ylmethyl)-3-(trifluoromethyl)phenyl)urea], the IC50 is 200 to 500 nM. Take `CN(C)C1CCN(Cc2ccc(NC(=O)Nc3ccc(Oc4ccnc5[nH]cc(Cl)c45)cc3F)cc2C(F)(F)F)CC1` [Example I-57, 1-(4-((3-chloro-1H-pyrrolo[2,3-b]pyridin-4-yl)oxy)-2-fluorophenyl)-3-(4-((4-(dimethylamino)piperidin-1-yl)methyl)-3-(trifluoromethyl)phenyl)urea]: the IC50 was above 2000 nM. The value for `CN1CCN(Cc2ccc(NC(=O)Nc3ccc(Oc4ccnc5[nH]cc(Cl)c45)cc3F)cc2C(F)(F)F)CC12CC2` [Example I-60, 1-(4-((3-chloro-1H-pyrrolo[2,3-b]pyridin-4-yl)oxy)-2-fluorophenyl)-3-(4-((4-methyl-4,7-diazaspiro[2.5]octan-7-yl)methyl)-3-(trifluoromethyl)phenyl)urea] was above 2000 nM; that for `Cc1c[nH]c2nccc(Oc3ccc(NC(=O)Nc4cnc(OC5CCN(C)CC5)c(C(F)(F)F)c4)c(F)c3)c12` [Example I-61, 1-(2-fluoro-4-((3-methyl-1H-pyrrolo[2,3-b]pyridin-4-yl)oxy)phenyl)-3-(6-((1-methylpiperidin-4-yl)oxy)-5-(trifluoromethyl)pyridin-3-yl)urea] was below 200 nM. The same measure for `CN1CCN(Cc2ccc(NC(=O)Nc3ccc(Oc4ccnc5[nH]cc(Cl)c45)cc3F)cc2OC(F)(F)F)CC1` [Example I-62, 1-(4-((3-chloro-1H-pyrrolo[2,3-b]pyridin-4-yl)oxy)-2-fluorophenyl)-3-(4-((4-methylpiperazin-1-yl)methyl)-3-(trifluoromethoxy)phenyl)urea]: below 200 nM; for `Cc1c[nH]c2nccc(Oc3ccc(NC(=O)Nc4ccc(OC5CCN(C)CC5)c(C(F)(F)F)c4)c(F)c3)c12` [Example I-63, 1-(2-fluoro-4-((3-methyl-1H-pyrrolo[2,3-b]pyridin-4-yl)oxy)phenyl)-3-(4-((1-methylpiperidin-4-yl)oxy)-3-(trifluoromethyl)phenyl)urea]: below 200 nM; for `CCN1CCC(Oc2ccc(NC(=O)Nc3ccc(Oc4ccnc5[nH]cc(Cl)c45)cc3F)cc2C(F)(F)F)CC1` [Example I-64, 1-(4-((3-chloro-1H-pyrrolo[2,3-b]pyridin-4-yl)oxy)-2-fluorophenyl)-3-(4-((1-ethylpiperidin-4-yl)oxy)-3-(trifluoromethyl)phenyl)urea]: below 200 nM.

For the molecule `CN1CCN(Cc2cc(NC(=O)Nc3ccc(Oc4ccnc5[nH]cc(Cl)c45)cc3F)cc(C(F)(F)F)c2)CC1` [Example I-65, 1-(4-((3-chloro-1H-pyrrolo[2,3-b]pyridin-4-yl)oxy)-2-fluorophenyl)-3-(3-((4-methylpiperazin-1-yl)methyl)-5-(trifluoromethyl)phenyl)urea], the IC50 is 500 to 2000 nM. Regarding `CN1CCC(Oc2ccc(NC(=O)Nc3ccc(Oc4ccnc5[nH]cc(Cl)c45)cc3F)cc2C(F)(F)F)C(F)C1` (stereo not drawn) [Example I-66, 1-(4-((3-chloro-1H-pyrrolo[2,3-b]pyridin-4-yl)oxy)-2-fluorophenyl)-3-(4-((3-fluoro-1-methylpiperidin-4-yl)oxy)-3-(trifluoromethyl)phenyl)urea], the IC50 fell in the range of 500 to 2000 nM. Consider `CN1CCN(C2CC(F)(F)c3cc(NC(=O)Nc4ccc(Oc5ccnc6[nH]cc(Cl)c56)cc4F)ccc32)CC1` (stereo not drawn) [Example I-67, 1-(4-((3-chloro-1H-pyrrolo[2,3-b]pyridin-4-yl)oxy)-2-fluorophenyl)-3-(3,3-difluoro-1-(4-methylpiperazin-1-yl)-2,3-dihydro-1H-inden-5-yl)urea], for which the IC50 was above 2000 nM.
